Results: patent US20150175974A1, “PRODUCING SOLIDS AND RELATED MOTHER LIQUORS” (Syngenta Participations AG, priority 2012, published 2015)
“And” between values parts separate entries of the source, which are not always exact repeats. Identical values can stand only once.

Experiments:
[1] = Particle size distribution of crystallized TMX (Malvern Mastersizer); format: physicochemical
Procedure: An aqueous solution of TMX at a concentration of 11 mg/ml was prepared. The respective portion of TMX and water was added to an appropriately sized vessel and heated to 60° C. to dissolve the TMX. Once dissolved, phage particles having binding domains selected to bind to TMX were added to the achieve target loading set forth in the Table 1 below. The solution was allowed to cool to room temperature and aged until crystallization was observed. Crystalline products were separated from the liquor by filtration and particle size distribution was measured using a Malvern Mastersizer.

[2] = Crystal shape of TMX crystallized with phage particles (optical and electron microscopy); format: physicochemical; details: TMX 11 mg/ml, phage loading C/2 to C (C=37 mg/ml), FIG. 1 and FIG. 2
Procedure: An aqueous solution of TMX at a concentration of 11 mg/ml was prepared. The respective portion of TMX and water was added to an appropriately sized vessel and heated to 60° C. to dissolve the TMX. […] Phage loading was a C, C/2, C/10, C/25, and C/100. The solution was allowed to cool to room temperature and aged until crystallization was observed. Crystalline products were separated from the liquor by filtration and characterized by microscopy.

[3] = average of the three measurements, TMX 11 mg/ml aqueous, cooled from 60° C.
[4] = single measurements, TMX 11 mg/ml aqueous, dissolved at 60° C., cooled to room temperature, crystals filtered, listed as TMX control

Structure (SMILES): CN1COCN(Cc2cnc(Cl)s2)/C1=N\[N+](=O)[O-] [TMX, Thiamethoxam]
- Size Dv (0.5) average [1, 3]: 23.1057 μm
- Size Dv (0.95) average [1, 3]: 54.11 μm
- Particle size of TMX crystallized in the presence of phage particles versus control ([1]; phage particles having binding domains selected to bind to TMX, C/25 and C/100): marked reduction
- Size Dv (0.5) [1, 4]: 23.378 μm and 22.048 μm and 23.891 μm
- Size Dv (0.95) [1, 4]: 52.18 μm and 54.16 μm and 55.74 μm
- Crystal shape [2]: more bi-pyramidal shape
